Source: PMC10366102, “Dose escalation and expansion cohorts in patients with advanced breast cancer in a Phase I study of the CDK7-inhibitor samuraciclib” (Nature Communications, 2023)
Where two headings read alike, the source gives them in different places.

Tested on: patients with advanced/metastatic solid tumors
Conditions: for TEAE: Upper respiratory tract infection / TEAE: Urinary tract infection: Module 1A
Description: In this Phase I study (ClinicalTrials.gov: NCT03363893), male and female patients with locally advanced/metastatic solid tumors received samuraciclib in dose escalation cohorts (at least 3 and up to 6 evaluable patients permitted per dose cohort) to determine the MTD (see Supplementary Information for definition). An additional 6 to 12 male or female patients with breast cancer were enrolled to a paired biopsy cohort to evaluate the pharmacodynamic effects of samuraciclib in tumor tissue, initiated after determining the minimally biologically active dose, defined by a 25-30% reduction in signal for pPolII in lymphocytes after 21 days of dosing or more.
For inclusion in the paired biopsy cohort, only patients with breast cancer with lesions amenable to biopsy were recruited. A full list of inclusion/exclusion criteria is provided in the Supplementary Information.
Patients initially received an oral dose of samuraciclib at Cycle 0, Day 1 for PK evaluation, followed by a 48-hour interval then continuous daily dosing for 21 days (Cycle 1). Dosing continued in 21-day cycles until the patient no longer gained clinical benefit or had intolerable toxicity. At least 3 evaluable patients in a cohort had to complete Cycle 1 before any dose escalation was considered.
As Module 1A was a ‘first time in human’ safety study, initial efficacy was evaluated as a secondary endpoint using the DCR, defined as the percentage of patients with a complete response (CR), PR or stabilization of disease at first on treatment RECIST assessment. To allow for the evaluation of longer-term benefit, Module 1B-1 and Module 2A used the CBR as a secondary endpoint, defined as the percentage of patients with CR or PR or stabilization of disease for at least 24 weeks between enrollment and disease progression or death due to any cause. In addition, the ORR was assessed, defined as the percentage of patients who had at least 1 objective response (CR or PR) prior to any evidence of progression. […] Statistical analyses of PFS using the Kaplan-Meier method were performed on the ITT population - defined as all enrolled patients. AEs were summarized from the Safety Population - defined as all patients who received at least 1 dose of samuraciclib - using the MedDRA system organ class (SOC), preferred term (PT), and graded according to CTCAE V5.0 (Supplementary Information). […]
In the Module 1A dose escalation cohort, patients initially received 1 oral dose of samuraciclib at Cycle 0, Day 1. In the absence of a dose-limiting toxicity (DLT) and following a washout period of at least 48 hours, patients could then enter Cycle 1 and receive samuraciclib daily. In the continued absence of a DLT, each patient could continue to receive samuraciclib daily for a minimum of 21 days (Cycle 1) and could continue to receive additional 21-day cycles of treatment until they were no longer gaining […]
treatment visit was conducted (within 3 days after the last samuraciclib dose). An end of study visit was conducted 28 to 35 days after the last dose of samuraciclib.
At least 3 and up to 6 evaluable patients were required for each dose cohort. At least 3 evaluable patients in a cohort had to complete at least one 21-day cycle of dosing before a Safety Review Committee (SRC), composed of study site investigators and Sponsor medical personnel, could review and initiate the next cohort and dose escalation. Within the initial cohorts there was a staggered interval, with subsequent patients not being dosed until the first patient within each cohort had completed 7 days of samuraciclib monotherapy.
Patient enrolment in the dose escalation cohort proceeded according to a Bayesian model rolling 6 […]
2. If 1 patient experienced a DLT in a group of 3 or more evaluable patients, then the cohort was expanded to include 6 evaluable patients. […]
dose escalation occurred.
3. If at least 2 patients experienced a DLT in a cohort of up to 6 patients, irrespective of the number of […]

SMILES: CC(C)c1cnn2c(NCc3ccccc3)cc(NC[C@H]3CCNC[C@@H]3O)nc12 [samuraciclib, Samuraciclib]
- TEAE: Upper respiratory tract infection (120 mg OD N=6): 5 (83.3) participants (%)
- TEAE: Urinary tract infection (120 mg OD N=6): 0 participants (%)
- TEAE: Upper respiratory tract infection (240 mg OD N=12): 1 (8.3) participants (%)
- TEAE: Urinary tract infection (240 mg OD N=12): 1 (8.3) participants (%)
- TEAE: Upper respiratory tract infection (360 mg OD N=12): 1 (8.3) participants (%)
- TEAE: Urinary tract infection (360 mg OD N=12): 1 (8.3) participants (%)
- TEAE: Upper respiratory tract infection (480 mg OD N=6): 0 participants (%)
- TEAE: Urinary tract infection (480 mg OD N=6): 1 (16.7) participants (%)
- Lowest dose tested in humans that has demonstrated biological activity (OD): 120 mg
- MBAD originally declared by the SRC (OD): 240 mg
- Non-tolerated dose (OD in a fasted state): 480 mg
- ALT increased; All AEs (both, human, in vivo): 8 (18.2) patients (%)
- ALT increased; Grade ≥3 (both, human, in vivo): 1 (2.3) patients (%)
- AST increased; All AEs (both, human, in vivo): 7 (15.9) patients (%)
- AST increased; Grade ≥3 (both, human, in vivo): 0 patients (%)
- Abdominal pain upper; All AEs (both, human, in vivo): 4 (9.1) patients (%)
- Abdominal pain upper; Grade ≥3 (both, human, in vivo): 0 patients (%)
- Abdominal pain; All AEs (both, human, in vivo): 12 (27.3) patients (%)
- Abdominal pain; Grade ≥3 (both, human, in vivo): 0 patients (%)
- Anemia; All AEs (both, human, in vivo): 10 (22.7) patients (%)
- Anemia; Grade ≥3 (both, human, in vivo): 2 (4.5) patients (%)
- Any treatment-emergent AE; All AEs (both, human, in vivo): 44 (100.0) patients (%)
- Any treatment-emergent AE; Grade ≥3 (both, human, in vivo): 21 (47.7) patients (%)
- Back pain; All AEs (both, human, in vivo): 6 (13.6) patients (%)
- Back pain; Grade ≥3 (both, human, in vivo): 0 patients (%)
- Constipation; All AEs (both, human, in vivo): 7 (15.9) patients (%)
- Constipation; Grade ≥3 (both, human, in vivo): 0 patients (%)
- Cough; All AEs (both, human, in vivo): 8 (18.2) patients (%)
- Cough; Grade ≥3 (both, human, in vivo): 0 patients (%)
- Decreased appetite; All AEs (both, human, in vivo): 9 (20.5) patients (%)
- Decreased appetite; Grade ≥3 (both, human, in vivo): 1 (2.3) patients (%)
- Diarrhea; All AEs (both, human, in vivo): 38 (86.4) patients (%)
- Diarrhea; Grade ≥3 (both, human, in vivo): 2 (4.5) patients (%)
- Dizziness; All AEs (both, human, in vivo): 2 (4.5) patients (%)
- Dizziness; Grade ≥3 (both, human, in vivo): 0 patients (%)
- Drug-related: ALT increased (both, human, in vivo): 3 (6.8) participants (%)
- Drug-related: AST increased (both, human, in vivo): 4 (9.1) participants (%)
- Drug-related: Abdominal pain (both, human, in vivo): 8 (18.2) participants (%)
- Drug-related: Abdominal pain upper (both, human, in vivo): 2 (4.5) participants (%)
- Drug-related: Anaemia (both, human, in vivo): 3 (6.8) participants (%)
- Drug-related: Blood creatinine increased (both, human, in vivo): 3 (6.8) participants (%)
- Drug-related: Decreased appetite (both, human, in vivo): 8 (18.2) participants (%)
- Drug-related: Dehydration (both, human, in vivo): 2 (4.5) participants (%)
- Drug-related: Diarrhoea (both, human, in vivo): 36 (81.8) participants (%)
- Drug-related: Dry mouth (both, human, in vivo): 2 (4.5) participants (%)
- Drug-related: Dyspepsia (both, human, in vivo): 2 (4.5) participants (%)
- Drug-related: Dysphagia (both, human, in vivo): 2 (4.5) participants (%)
- Drug-related: Fatigue (both, human, in vivo): 14 (31.8) participants (%)
- Drug-related: Gastroesophageal reflux disease (both, human, in vivo): 3 (6.8) participants (%)
- Drug-related: Mucosal inflammation (both, human, in vivo): 2 (4.5) participants (%)
- Drug-related: Nausea (both, human, in vivo): 34 (77.3) participants (%)
- Drug-related: Thrombocytopenia (both, human, in vivo): 3 (6.8) participants (%)
- Drug-related: Vomiting (both, human, in vivo): 35 (79.5) participants (%)
- Drug-related: Weight decreased (both, human, in vivo): 4 (9.1) participants (%)
- Dysgeusia; All AEs (both, human, in vivo): 1 (2.3) patients (%)
- Dysgeusia; Grade ≥3 (both, human, in vivo): 0 patients (%)
- Dysphagia; All AEs (both, human, in vivo): 2 (4.5) patients (%)
- Dysphagia; Grade ≥3 (both, human, in vivo): 0 patients (%)
- Dyspnea; All AEs (both, human, in vivo): 6 (13.6) patients (%)
- Dyspnea; Grade ≥3 (both, human, in vivo): 2 (4.5) patients (%)
- Fatigue; All AEs (both, human, in vivo): 17 (38.6) patients (%)
- Fatigue; Grade ≥3 (both, human, in vivo): 0 patients (%)
- Grade ≥3: GGT increased (both, human, in vivo): 2 (4.5) participants (%)
- Grade ≥3: Malignant neoplasm progression (both, human, in vivo): 2 (4.5) participants (%)
- Grade ≥3: Pulmonary embolism (both, human, in vivo): 2 (4.5) participants (%)
- Grade ≥3: Thrombocytopenia (both, human, in vivo): 2 (4.5) participants (%)
- Headache; All AEs (both, human, in vivo): 4 (9.1) patients (%)
- Headache; Grade ≥3 (both, human, in vivo): 0 patients (%)
- Hyperglycemia; All AEs (both, human, in vivo): 1 (2.3) patients (%)
- Hyperglycemia; Grade ≥3 (both, human, in vivo): 0 patients (%)
- Hypocalcaemia; All AEs (both, human, in vivo): 2 (4.5) patients (%)
- Hypocalcaemia; Grade ≥3 (both, human, in vivo): 0 patients (%)
- Hypokalaemia; All AEs (both, human, in vivo): 0 patients (%)
- Hypokalaemia; Grade ≥3 (both, human, in vivo): 0 patients (%)
- Nausea; All AEs (both, human, in vivo): 34 (77.3) patients (%)
- Nausea; Grade ≥3 (both, human, in vivo): 0 patients (%)
- Participants with any drug-related TEAE (both, human, in vivo): 44 (100.0) participants (%)
- Rash; All AEs (both, human, in vivo): 1 (2.3) patients (%)
- Rash; Grade ≥3 (both, human, in vivo): 0 patients (%)
- Stomatitis; All AEs (both, human, in vivo): 1 (2.3) patients (%)
- Stomatitis; Grade ≥3 (both, human, in vivo): 0 patients (%)
- Taste disorder; All AEs (both, human, in vivo): 0 patients (%)
- Taste disorder; Grade ≥3 (both, human, in vivo): 0 patients (%)
- Thrombocytopenia reported as Grade ≥3 (both, human, in vivo): 2 patients
- Upper respiratory tract infection; All AEs (both, human, in vivo): 8 (18.2) patients (%)
- Upper respiratory tract infection; Grade ≥3 (both, human, in vivo): 0 patients (%)
- Urinary tract infection; All AEs (both, human, in vivo): 5 (11.4) patients (%)
- Urinary tract infection; Grade ≥3 (both, human, in vivo): 0 patients (%)
- Vomiting; All AEs (both, human, in vivo): 36 (81.8) patients (%)
- Vomiting; Grade ≥3 (both, human, in vivo): 1 (2.3) patients (%)
- Weight decreased; All AEs (both, human, in vivo): 4 (9.1) patients (%)
- Weight decreased; Grade ≥3 (both, human, in vivo): 1 (2.3) patients (%)
- DLT: Decreased appetite (both, human, in vivo, 21 days): 1 (3.0) patients (%)
- DLT: Diarrhoea (both, human, in vivo, 21 days): 1 (3.0) patients (%)
- DLT: Gastroesophageal reflux disease (both, human, in vivo, 21 days): 1 (3.0) patients (%)
- DLT: Nausea (both, human, in vivo, 21 days): 1 (3.0) patients (%)
- DLT: Oesophagitis (both, human, in vivo, 21 days): 1 (3.0) patients (%)
- DLT: Stomatitis (both, human, in vivo, 21 days): 1 (3.0) patients (%)
- DLT: Thrombocytopenia (both, human, in vivo, 21 days): 1 (3.0) patients (%)
- DLT: Vomiting (both, human, in vivo, 21 days): 2 (6.1) patients (%)
- DLT: Weight decreased (both, human, in vivo, 21 days): 1 (3.0) patients (%)
- Patients with a dose-limiting toxicity (both, human, in vivo, 21 days): 3/6
- Patients with any DLT (both, human, in vivo, 21 days): 6 (18.2) patients (%)
- Drug-related: Oral pain (both, human, in vivo, po): 2 (4.5) participants (%)
- Drop in platelet counts (during therapy, over the first 15 days then plateau, 240 mg OD and 360 mg OD): ~20%
- Maximum tolerated dose (MTD) (once daily, monotherapy): 360 mg
